Values of other authors in patent publication US20230071934A1, “NOVEL USES” (Intra-Cellular Therapies, Inc., priority 2019, published 2023).

Biological target: T1, sEH (Homo sapiens, UniProt P34913)
T1 sequence (P34913 1-555): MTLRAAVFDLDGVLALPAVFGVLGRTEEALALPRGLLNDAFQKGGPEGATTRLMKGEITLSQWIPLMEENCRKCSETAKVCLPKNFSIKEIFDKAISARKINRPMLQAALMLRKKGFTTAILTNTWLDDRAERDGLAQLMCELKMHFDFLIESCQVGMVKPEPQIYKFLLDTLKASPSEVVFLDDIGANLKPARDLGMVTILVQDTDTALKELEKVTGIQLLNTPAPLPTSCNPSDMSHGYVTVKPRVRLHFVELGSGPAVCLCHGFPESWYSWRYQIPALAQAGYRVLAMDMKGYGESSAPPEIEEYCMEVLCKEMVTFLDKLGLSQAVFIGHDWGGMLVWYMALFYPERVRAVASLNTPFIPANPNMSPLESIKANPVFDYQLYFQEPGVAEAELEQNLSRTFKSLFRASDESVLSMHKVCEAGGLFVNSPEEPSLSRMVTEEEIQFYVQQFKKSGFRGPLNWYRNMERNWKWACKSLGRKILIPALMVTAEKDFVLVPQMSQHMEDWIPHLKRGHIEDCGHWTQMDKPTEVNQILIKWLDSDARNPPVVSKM

## CCCCCCCCCCCCNC(=O)NC12CC3CC(CC(C3)C1)C2 [ADU, N-Adamantyl-N′-dodecyl urea]
  activity as an inhibitor of sEH: particularly high activity
